Laboratory results published in ChEMBL document CHEMBL1126528, “Synthesis and biological evaluation of a series of HIV-1 protease inhibitors” (Bioorg Med Chem Lett, 1993).

Legend:
MT2 = assay: Concentration required for anti-viral activity (Anti-HIV-IIIB activity) against human T lymphoid (MT-2) cells that are infected with HIV-IIIB virus; type: functional, cell-based
[1] = molecular target: Human immunodeficiency virus type 1 protease (Human immunodeficiency virus 1, UniProt Q72874); assay: Concentration required for inhibitory activity against HIV-1 Protease

| Compound | IC50 (MT2) [nM] | IC50 [1] [nM] |
| --- | --- | --- |
| CC(C)(C)NC(=O)[C@@H]1C[C@@H]2CCCC[C@@H]2CN1C[C@@H](O)[C@H](Cc1ccccc1)NC(=O)[C@H](CC(N)=O)NC(=O)c1ccc2ccccc2n1 | 3 | – |
| CC[C@H](C)[C@H](NC(=O)[C@H](Cc1ccccc1)C[C@@H](O)CN1C[C@H]2CCCC[C@H]2C[C@H]1C(=O)NC(C)(C)C)C(=O)NCc1nc2ccccc2[nH]1 | 21 | 30 |
| CC[C@H](C)[C@H](NC(=O)[C@H](Cc1ccccc1)CC(O)CN1CCC[C@@H]1C(=O)N[C@H](C(=O)OC(C)(C)C)[C@@H](C)CC)C(=O)NCc1nc2ccccc2[nH]1 (some centres undefined) | > 1750 | > 1400 |
| CC[C@H](C)[C@H](NC(=O)[C@H](Cc1ccccc1)CC(O)CN1CCC[C@@H]1C(=O)NC(C)(C)C)C(=O)NCc1nc2ccccc2[nH]1 (some centres undefined) | 490 | 80 |
| CC[C@H](C)[C@H](NC(=O)[C@H](Cc1ccccc1)CC(O)(CO)CN1C[C@H]2CCCC[C@H]2C[C@H]1C(=O)NC(C)(C)C)C(=O)NCc1nc2ccccc2[nH]1 (some centres undefined) | 280 | – |
| CC[C@H](C)[C@H](NC(=O)[C@H](Cc1ccccc1)CC(O)CN1C[C@H]2CCCC[C@H]2C[C@H]1C(=O)NC(C)(C)C)C(=O)OC (some centres undefined) | > 1750 | – |
| CC(C)(C)NC(=O)[C@@H]1C[C@@H]2CCCC[C@@H]2CN1CC(O)C[C@@H](Cc1ccccc1)C(=O)N[C@H]1CCCC[C@@H]1NC(=O)c1ccc2ccccc2n1 (some centres undefined) | 3600 | 70 |
| CC[C@H](C)[C@H](NC(=O)[C@H](Cc1ccccc1)CC(O)(CO)CN(CC(=O)NC(C)(C)C)CC1CCCCC1)C(=O)NCc1nc2ccccc2[nH]1 (some centres undefined) | > 1750 | 140 |
| CC[C@H](C)[C@H](NC(=O)[C@H](Cc1ccccc1)CC(O)CN1CCCCC1C(=O)NC(C)(C)C)C(=O)NCc1nc2ccccc2[nH]1 (some centres undefined) | 480 | 30 |
| CC(C)(C)NC(=O)[C@@H]1C[C@@H]2CCCC[C@@H]2CN1CC(O)C[C@@H](Cc1ccccc1)C(=O)N[C@H]1CCCC[C@@H]1NC(=O)c1cc2ccccc2cn1 (some centres undefined) | 1750 | 70 |
| CC[C@H](C)[C@H](NC(=O)[C@H](CC(C)C)CC(O)CN1C[C@H]2CCCC[C@H]2C[C@H]1C(=O)NC(C)(C)C)C(=O)NCc1nc2ccccc2[nH]1 (some centres undefined) | 31 | 30 |
| CC[C@H](C)[C@H](NC(=O)[C@H](Cc1ccccc1)CC(O)CN1C[C@H]2CCCC[C@H]2C[C@H]1C(=O)NC(C)(C)C)C(=O)NCCc1nc2ccccc2[nH]1 (some centres undefined) | 850 | 130 |
| CN(CC(O)C[C@@H](Cc1ccccc1)C(=O)N[C@H]1CCCC[C@@H]1NC(=O)c1ccc2ccccc2n1)[C@@H](CC1CCCCC1)C(=O)NC(C)(C)C (some centres undefined) | > 1750 | > 1400 |
| CC[C@H](C)[C@H](NC(=O)[C@H](Cc1ccccc1)CC(O)CN1CCCCC1C(=O)NC(C)(C)C)C(=O)NCc1ccccn1 (some centres undefined) | > 1750 | 250 |
| CC[C@H](C)[C@H](NC(=O)[C@H](Cc1ccccc1)CC(O)CN1C[C@H]2CCCC[C@H]2C[C@H]1C(=O)NC(C)(C)C)C(=O)NCc1ccccn1 (some centres undefined) | 310 | 150 |
| CC[C@H](C)[C@H](NC(=O)[C@H](Cc1ccccc1)CC(O)CN1C[C@H]2CCCC[C@H]2C[C@H]1C(=O)NC(C)(C)C)C(=O)NCc1nc2ccccc2[nH]1 (single isomer, unassigned) | 29 | 30 |
